# Results: PubChem BioAssay (NCI)
#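 96-well plates; 48 h exposure; 5 concentrations. Endpoints by linear interpolation between flanking doses. Not reached: highest tested concentration assigned. Abbreviation: GI50, concentration required for 50% inhibition of growth. TGI marks complete inhibition of growth.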
# How the values were obtained:
# Test in all cases: DTP human tumour cell line panel, 48 h
# SNB-19 CNS = tested on: SNB-19 CNS
# DU-145 prostate = tested on: DU-145 prostate
# SK-MEL-5 melanoma = tested on: SK-MEL-5 melanoma
# CAKI-1 renal = tested on: CAKI-1 renal
# NCI-H23 lung = tested on: NCI-H23 lung
# ACHN renal = tested on: ACHN renal
# MCF7 breast = tested on: MCF7 breast
# SF-268 CNS = tested on: SF-268 CNS
# EKVX NSCLC = tested on: EKVX NSCLC
# KM12 colon = tested on: KM12 colon
# SK-MEL-28 melanoma = tested on: SK-MEL-28 melanoma
# NCI-H460 lung = tested on: NCI-H460 lung
# OVCAR-3 ovarian = tested on: OVCAR-3 ovarian
# SF-295 CNS = tested on: SF-295 CNS
# MALME-3M melanoma = tested on: MALME-3M melanoma
# IGROV1 ovarian = tested on: IGROV1 ovarian
# MOLT-4 leukemia = tested on: MOLT-4 leukemia
# K-562 leukemia = tested on: K-562 leukemia
# A549 NSCLC = tested on: A549 NSCLC
# OVCAR-5 ovarian = tested on: OVCAR-5 ovarian
# SR leukemia = tested on: SR leukemia
# COLO 205 colon = tested on: COLO 205 colon
# A498 renal = tested on: A498 renal
# OVCAR-4 ovarian = tested on: OVCAR-4 ovarian
# HS 578T breast = tested on: HS 578T breast
# HT29 colon = tested on: HT29 colon
# HOP-92 NSCLC = tested on: HOP-92 NSCLC
# SK-MEL-2 melanoma = tested on: SK-MEL-2 melanoma
# RXF 393 renal = tested on: RXF 393 renal
# TK-10 renal = tested on: TK-10 renal
# HCT-15 colon = tested on: HCT-15 colon
# 786-0 renal = tested on: 786-0 renal
# CCRF-CEM leukemia = tested on: CCRF-CEM leukemia
# HL-60(TB) leukemia = tested on: HL-60(TB) leukemia
# MDA-MB-468 breast = tested on: MDA-MB-468 breast
# U251 CNS = tested on: U251 CNS
# SF-539 CNS = tested on: SF-539 CNS
# SNB-75 CNS = tested on: SNB-75 CNS
# HCC-2998 colon = tested on: HCC-2998 colon
# SK-OV-3 ovarian = tested on: SK-OV-3 ovarian
# SN12C renal = tested on: SN12C renal
# T-47D breast = tested on: T-47D breast
# SW-620 colon = tested on: SW-620 colon
# NCI-H226 lung = tested on: NCI-H226 lung
# UACC-62 melanoma = tested on: UACC-62 melanoma
# LOX IMVI melanoma = tested on: LOX IMVI melanoma
# MDA-MB-231 breast = tested on: MDA-MB-231 breast
# UACC-257 melanoma = tested on: UACC-257 melanoma
# HCT-116 colon = tested on: HCT-116 colon
# NCI-H522 lung = tested on: NCI-H522 lung
# MDA-MB-435 = tested on: MDA-MB-435
# BT-549 breast = tested on: BT-549 breast
# OVCAR-8 ovarian = tested on: OVCAR-8 ovarian
# UO-31 renal = tested on: UO-31 renal
# M14 melanoma = tested on: M14 melanoma
# PC-3 prostate = tested on: PC-3 prostate
# HOP-62 NSCLC = tested on: HOP-62 NSCLC
structure (smiles),measurement,setting,value
O=C(/C=C/c1ccccc1)c1nc2ccccc2n1Cc1ccc(F)cc1,GI50,SNB-19 CNS,2.13 µM
same,TGI,SNB-19 CNS,5.76 µM
same,GI50,DU-145 prostate,3.67 µM
same,TGI,DU-145 prostate,14.2 µM
same,GI50,SK-MEL-5 melanoma,3.49 µM
same,TGI,SK-MEL-5 melanoma,14.4 µM
same,GI50,CAKI-1 renal,2.97 µM
same,TGI,CAKI-1 renal,12.5 µM
same,GI50,NCI-H23 lung,2.66 µM
same,TGI,NCI-H23 lung,8.6 µM
same,GI50,ACHN renal,3.66 µM
same,TGI,ACHN renal,12.6 µM
same,GI50,MCF7 breast,1.77 µM
same,TGI,MCF7 breast,6.02 µM
same,GI50,SF-268 CNS,7.22 µM
same,TGI,SF-268 CNS,30.2 µM
same,GI50,EKVX NSCLC,4.86 µM
same,TGI,EKVX NSCLC,17 µM
same,GI50,KM12 colon,2.18 µM
same,TGI,KM12 colon,5.01 µM
same,GI50,SK-MEL-28 melanoma,2.18 µM
same,TGI,SK-MEL-28 melanoma,5.25 µM
same,GI50,NCI-H460 lung,2.14 µM
same,TGI,NCI-H460 lung,5.38 µM
same,GI50,OVCAR-3 ovarian,2 µM
same,TGI,OVCAR-3 ovarian,4.14 µM
same,GI50,SF-295 CNS,3.19 µM
same,TGI,SF-295 CNS,10.8 µM
same,GI50,MALME-3M melanoma,3.52 µM
same,TGI,MALME-3M melanoma,14.5 µM
same,GI50,IGROV1 ovarian,2.33 µM
same,TGI,IGROV1 ovarian,5.89 µM
same,GI50,MOLT-4 leukemia,3.16 µM
same,TGI,MOLT-4 leukemia,> 100 µM
same,GI50,K-562 leukemia,3.1 µM
same,TGI,K-562 leukemia,> 100 µM
same,GI50,A549 NSCLC,4.82 µM
same,TGI,A549 NSCLC,21.1 µM
same,GI50,OVCAR-5 ovarian,3.31 µM
same,TGI,OVCAR-5 ovarian,11.6 µM
same,GI50,SR leukemia,2.99 µM
same,TGI,SR leukemia,> 100 µM
same,GI50,COLO 205 colon,3.18 µM
same,TGI,COLO 205 colon,7.86 µM
same,GI50,A498 renal,18.5 µM
same,TGI,A498 renal,33.1 µM
same,GI50,OVCAR-4 ovarian,11.1 µM
same,TGI,OVCAR-4 ovarian,28.6 µM
same,GI50,HS 578T breast,4.76 µM
same,TGI,HS 578T breast,47.6 µM
same,GI50,HT29 colon,3.26 µM
same,TGI,HT29 colon,9.14 µM
same,GI50,HOP-92 NSCLC,4.03 µM
same,TGI,HOP-92 NSCLC,20.4 µM
same,GI50,SK-MEL-2 melanoma,5.11 µM
same,TGI,SK-MEL-2 melanoma,17.1 µM
same,GI50,RXF 393 renal,1.56 µM
same,TGI,RXF 393 renal,3 µM
same,GI50,TK-10 renal,2.9 µM
same,TGI,TK-10 renal,10.4 µM
same,GI50,HCT-15 colon,1.75 µM
same,TGI,HCT-15 colon,3.66 µM
same,GI50,786-0 renal,1.82 µM
same,TGI,786-0 renal,3.49 µM
same,GI50,CCRF-CEM leukemia,4.43 µM
same,TGI,CCRF-CEM leukemia,> 100 µM
same,GI50,HL-60(TB) leukemia,2.44 µM
same,TGI,HL-60(TB) leukemia,12.4 µM
same,GI50,MDA-MB-468 breast,1.92 µM
same,TGI,MDA-MB-468 breast,3.73 µM
same,GI50,U251 CNS,1.62 µM
same,TGI,U251 CNS,3.19 µM
same,GI50,SF-539 CNS,2.01 µM
same,TGI,SF-539 CNS,4.18 µM
same,GI50,SNB-75 CNS,1.72 µM
same,TGI,SNB-75 CNS,10.9 µM
same,GI50,HCC-2998 colon,1.83 µM
same,TGI,HCC-2998 colon,3.91 µM
same,GI50,SK-OV-3 ovarian,18.9 µM
same,TGI,SK-OV-3 ovarian,45.5 µM
same,GI50,SN12C renal,3.7 µM
same,TGI,SN12C renal,13.8 µM
same,GI50,T-47D breast,2.71 µM
same,TGI,T-47D breast,12.1 µM
same,GI50,SW-620 colon,2.15 µM
same,TGI,SW-620 colon,4.45 µM
same,GI50,NCI-H226 lung,13.8 µM
same,TGI,NCI-H226 lung,34.4 µM
same,GI50,UACC-62 melanoma,2.42 µM
same,TGI,UACC-62 melanoma,10.4 µM
same,GI50,LOX IMVI melanoma,1.62 µM
same,TGI,LOX IMVI melanoma,3.1 µM
same,GI50,MDA-MB-231 breast,1.98 µM
same,TGI,MDA-MB-231 breast,4.17 µM
same,GI50,UACC-257 melanoma,4.1 µM
same,TGI,UACC-257 melanoma,17 µM
same,GI50,HCT-116 colon,1.92 µM
same,TGI,HCT-116 colon,3.84 µM
same,GI50,NCI-H522 lung,2.42 µM
same,TGI,NCI-H522 lung,5.85 µM
same,GI50,MDA-MB-435,2.23 µM
same,TGI,MDA-MB-435,5.92 µM
same,GI50,BT-549 breast,2.54 µM
same,TGI,BT-549 breast,7.59 µM
same,GI50,OVCAR-8 ovarian,2.56 µM
same,TGI,OVCAR-8 ovarian,6.88 µM
same,GI50,UO-31 renal,1.77 µM
same,TGI,UO-31 renal,4.21 µM
same,GI50,M14 melanoma,3.17 µM
same,TGI,M14 melanoma,11.4 µM
same,GI50,PC-3 prostate,4.13 µM
same,TGI,PC-3 prostate,26.7 µM
same,GI50,HOP-62 NSCLC,3.93 µM
same,TGI,HOP-62 NSCLC,12.6 µM
